Laboratory results from patent US7858657B2 (Proix Pharmaceutical Corp., priority 2004, dated 2010).
Like-named read-outs stand apart in the source and are kept apart here.

Assays:
[1] = Pharmacokinetics of PX-866 in mouse plasma; assay type: in vivo; settings: intravenous, intraperitoneal and oral administration; mouse plasma (FIG. 2)
OvCaR-3 ovarian [2] = test: Antitumor activity of wortmannin analogs, OvCaR-3 ovarian tumor (Table 1); assay type: in vivo; settings: initial tumor vol 120 mm^3, 8 mg/kg/day ip Q1D × 9
OvCaR-3 ovarian [3] = test: Antitumor activity of cytotoxic drugs alone or combined with PX-866, OvCar-3 ovarian (Table 2); assay type: in vivo; settings: for Alone Growth delay days / Alone TGI % / Alone log cell kill: size 110 mm^3
p110α/p85α = biological target: T1, p110α/p85α (Bos taurus, UniProt P32871); test: Inhibition of recombinant PtdIns-3-kinase, [32P]-ATP dependent phosphorylation of PtdIns; assay type: biochemical, bovine; settings: recombinant enzyme; read-out: IC50, PtdIns-3-kinase p110α/p85α
T1 construct: purchased Upstate (Charlottesville, Va.)
T1 sequence (P32871 whole entry): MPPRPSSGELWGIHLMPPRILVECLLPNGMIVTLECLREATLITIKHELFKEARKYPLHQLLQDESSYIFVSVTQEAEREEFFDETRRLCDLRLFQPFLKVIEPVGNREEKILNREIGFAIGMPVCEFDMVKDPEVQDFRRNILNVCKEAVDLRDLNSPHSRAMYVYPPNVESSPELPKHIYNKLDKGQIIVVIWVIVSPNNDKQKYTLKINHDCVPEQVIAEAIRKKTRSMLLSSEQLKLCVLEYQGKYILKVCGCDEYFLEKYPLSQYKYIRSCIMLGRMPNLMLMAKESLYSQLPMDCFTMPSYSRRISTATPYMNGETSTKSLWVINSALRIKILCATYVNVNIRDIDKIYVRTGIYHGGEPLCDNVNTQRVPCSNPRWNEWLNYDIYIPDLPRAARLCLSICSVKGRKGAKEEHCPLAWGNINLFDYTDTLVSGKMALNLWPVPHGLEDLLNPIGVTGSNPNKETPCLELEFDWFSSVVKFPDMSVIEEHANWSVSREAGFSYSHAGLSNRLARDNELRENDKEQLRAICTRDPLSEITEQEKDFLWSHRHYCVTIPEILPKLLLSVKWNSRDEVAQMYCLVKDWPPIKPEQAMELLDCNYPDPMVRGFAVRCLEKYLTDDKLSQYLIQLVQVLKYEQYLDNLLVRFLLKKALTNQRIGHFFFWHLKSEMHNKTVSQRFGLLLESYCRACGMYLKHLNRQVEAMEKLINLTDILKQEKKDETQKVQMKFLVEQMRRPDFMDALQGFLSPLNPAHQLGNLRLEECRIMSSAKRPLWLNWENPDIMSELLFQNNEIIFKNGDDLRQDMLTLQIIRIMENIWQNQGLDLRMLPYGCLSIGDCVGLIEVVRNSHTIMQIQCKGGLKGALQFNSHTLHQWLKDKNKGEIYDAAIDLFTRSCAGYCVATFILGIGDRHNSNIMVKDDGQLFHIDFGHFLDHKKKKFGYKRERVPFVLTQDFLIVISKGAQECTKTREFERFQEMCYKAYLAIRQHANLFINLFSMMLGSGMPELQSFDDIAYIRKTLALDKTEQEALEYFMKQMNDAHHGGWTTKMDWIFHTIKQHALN
T1 sequence (P23727 2-724 partner): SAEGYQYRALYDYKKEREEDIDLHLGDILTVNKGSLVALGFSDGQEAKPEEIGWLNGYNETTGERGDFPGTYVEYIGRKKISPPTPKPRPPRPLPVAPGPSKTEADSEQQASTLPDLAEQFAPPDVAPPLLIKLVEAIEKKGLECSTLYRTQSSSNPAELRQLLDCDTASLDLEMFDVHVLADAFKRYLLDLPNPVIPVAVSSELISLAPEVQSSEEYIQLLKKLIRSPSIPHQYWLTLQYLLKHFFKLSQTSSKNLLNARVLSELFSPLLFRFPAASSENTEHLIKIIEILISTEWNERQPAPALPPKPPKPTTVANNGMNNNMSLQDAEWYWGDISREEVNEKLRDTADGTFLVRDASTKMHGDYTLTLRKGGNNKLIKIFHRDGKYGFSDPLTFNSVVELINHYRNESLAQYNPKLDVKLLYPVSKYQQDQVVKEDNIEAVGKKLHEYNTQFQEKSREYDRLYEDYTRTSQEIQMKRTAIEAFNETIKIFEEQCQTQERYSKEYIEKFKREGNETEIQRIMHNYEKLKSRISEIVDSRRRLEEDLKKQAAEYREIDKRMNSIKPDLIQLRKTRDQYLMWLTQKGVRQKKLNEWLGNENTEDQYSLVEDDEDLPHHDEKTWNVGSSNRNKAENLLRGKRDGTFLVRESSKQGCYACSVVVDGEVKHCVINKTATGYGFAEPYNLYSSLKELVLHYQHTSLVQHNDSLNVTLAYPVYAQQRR
Description: Materials and Methods. Compounds. […] Rabbit purified anti-phosphoSer473-Akt antibody, anti-Akt antibody, antiphospho Tyr1086-EGF-receptor antibody and anti-EGFR antibody were obtained from Cell Signaling Technology (Beverly, Mass.). Human recombinant p110α/p85α, p110β/p85α, p120 (and p110*/p85α PtdIns-3-kinases were obtained from Upstate (Charlottesville, Va.). Metformin hydrochloride was obtained from Spectrum Chemical (Gardena, Calif.), pioglitazone hydrochloride and recombinant human insulin from Sigma Chemical (St. Louis).
(§1) Measurement of PtdIns-3-kinase.

[4] = tested on: phospho-Akt in A-549 cells; test: cells; assay type: cell-based; settings: Homo sapiens, A549; A-549 cells in media containing 10% fbs; read-out: IC50, inhibition of phospho-Akt
Description: (§2) Cells. […] All cell lines were tested to be mycoplasma free using a PCR ELISA kit (Roche Diagnostics Inc., Indianapolis, Ind.).
as §1

A-549 cells = assay type: cell-based, human; settings: PX-866 at concentrations up to 100 nM
Description: as §2

[5] = tested on: tumor phospho-Akt (A-549 tumor xenografts); test: Pharmacodynamic studies, tumor phospho-Akt in A-549 xenografts; assay type: in vivo, scid mice
Description: Pharmacodynamic Studies. […] Tumor Akt activity was expressed as the ratio of phospho-Ser473-Akt to total Akt.

[6] = tested on: tumor phospho-EGFR (A-549 tumor xenografts); assay type: in vivo, scid mice
[7] = Toxicity of long term PX-866 administration, scid mice; assay type: in vivo; settings: for ALT: 24 hr after last dose, mean of 4 mice ± SE; for gain in body weight as % of the control weight gain: over the 4 weeks of treatment
Description: (§3) Toxicity Studies. […] The mice were killed 24 hr after the last dose and changes in body weight, blood lymphocyte, neutrophil, red blood cell, platelet counts, serum glucose, aspartate amino transferase (AST), and amino alanine transferase (ALT) were measured.
Values are the mean of 4 mice per group±SE.

[8] = Toxicity studies, blood counts in C57B1/6 mice; assay type: in vivo; settings: PX-866 3 mg/kg po every other day for 15 doses
Description: as §3

mouse bone marrow = test: Bone marrow colony formation from treated mice; assay type: in vivo; settings: C57B1/6 mice, PX-866 3 mg/kg po every other day for 15 doses
Description: Bone Marrow Colony Formation. After sacrifice, mouse bone marrow was extracted from each femur and red blood cells lysed with 0.2% hypotonic NaCl followed by the addition of a 1.6% hypertonic NaCl. Approximately 20,000 cells were plated in 1 ml of Methocult™ GF M3434 (Stemcell Technologies Inc, Vancouver, BC, Canada) containing 1% methylcellulose in […], 15% fbs, 1% bovine serum albumin, 10:g/ml recombinant human insulin, 200:g/ml humantransferrin, […] β-mercaptoethanol, 2 mM L-glutamine, 50 ng/ml rm stem cell factor, 10 ng/ml recombinant mouse interleukin-3, 10 ng/ml recombinant human interleukin-6, and 3 units/ml recombinant erythropoietin. Cells were plated in triplicate and grown at 37/C and 5% CO2 in a humid environment for 14 days before scoring. Colonies (>40 cells/colony) or clusters (3-40 cells) were scored and growth of colony-forming unit granulocyte, erythroid, macrophage, megakaryocyte (CFU-GEMM; burst-forming units-erythroid (BFU-E), colony-forming units granulocyte macrophage (CFU-GM), assessed using standard criteria. Qualitative observations were made on background levels of single cells.

[9] = PX-866 iv 12 mg/kg Q2D × 5 combined with taxol ip 12 mg/kg Q2D × 5
[10] = PX-866 po 4 mg/kg Q2D × 5 combined with taxol ip 12 mg/kg Q2D × 5
[11] = combination of gefitinib and PX-866
[12] = PX-866 1.5 mg/kg po every other day for 14 doses, mean ± SE
[13] = PX-866 3 mg/kg po every other day for 14 doses, mean ± SE
[14] = PX-866 10 mg/kg iv every other day for 14 doses, mean ± SE

Compound: C=CCN(/C=C1/C(=O)O[C@H](COC)[C@@]2(C)C1=C(O)C(=O)C1=C2[C@H](OC(C)=O)C[C@]2(C)C(=O)CC[C@@H]12)CC=C [PX-866]
- half-life [1]: ~16 h
- Growth Delay (OvCaR-3 ovarian [2]): 12 days
- Log10 cell kill (OvCaR-3 ovarian [2]): 1.2
- T/C % (optimal test/control) (OvCaR-3 ovarian [2]; day 40): 30 (40) %
- Combined Growth delay days (OvCaR-3 ovarian [3]; [9]): 20 days
- Combined TGI % (OvCaR-3 ovarian [3]; [9]): 83%
- Combined log cell kill (OvCaR-3 ovarian [3]; [9]): 1.5
- Combined Growth delay days (OvCaR-3 ovarian [3]; [10]): 34 days
- Combined TGI % (OvCaR-3 ovarian [3]; [10]): 87%
- Combined log cell kill (OvCaR-3 ovarian [3]; [10]): 2.6
- Alone Growth delay days (OvCaR-3 ovarian [3]; PX-866 iv 12 mg/kg Q2D × 5): 12 days
- Alone TGI % (OvCaR-3 ovarian [3]; PX-866 iv 12 mg/kg Q2D × 5): 58%
- Alone log cell kill (OvCaR-3 ovarian [3]; PX-866 iv 12 mg/kg Q2D × 5): 0.9
- Alone Growth delay days (OvCaR-3 ovarian [3]; PX-866 po 4 mg/kg Q2D × 5): 11 days
- Alone TGI % (OvCaR-3 ovarian [3]; PX-866 po 4 mg/kg Q2D × 5): 53%
- Alone log cell kill (OvCaR-3 ovarian [3]; PX-866 po 4 mg/kg Q2D × 5): 0.82
- IC50 (p110α/p85α): 5.5 nM
- IC50 [4]: 25 nM
- enhancement of the growth inhibition by gefitinib (A-549 cells): did not enhance
- inhibition at 12 mg/kg ([5]; Mus musculus, A549, iv, 120 h, read-out: inhibition of tumor phospho-Akt): 51%
- inhibition at 3 mg/kg ([5]; Mus musculus, A549, po, 120 h, read-out: inhibition of tumor phospho-Akt): 48%
- effect upon tumor phospho-Akt [5, 11]: inhibited both
- effect upon tumor phospho-EGFR ([6]; PX-866 3 mg/kg po every other day for 5 days): no significant effect
- effect upon tumor phospho-EGFR ([6]; PX-866 12 mg/kg iv every other day for 5 days): no significant effect
- effect upon tumor phospho-EGFR [6, 11]: inhibited both
- ALT ([7]; PX-866 1.5 mg/kg po every other day for 14 doses): 65.6 ± 27.5 U/l
- AST [7, 12]: 140.5 ± 35.2 U/l
- Hb [7, 12]: 14.6 ± 0.3 g/dL
- Weight change [7, 12]: 3.9 ± 0.6 g
- ALT ([7]; PX-866 3 mg/kg po every other day for 14 doses): 47.6 ± 16.8 U/l
- AST [7, 13]: 152.0 ± 47.2 U/l
- Hb [7, 13]: 14.7 ± 0.4 g/dL
- LY [7, 13]: 5.2 ± 3.9 K/μl
- MO [7, 13]: 9.2 ± 3.6 K/μl
- Plt [7, 13]: 1665 ± 227 K/μl
- gain in body weight as % of the control weight gain ([7]; PX-866 3 mg/kg po): 28%
- ALT ([7]; PX-866 10 mg/kg iv every other day for 14 doses): 35.5 ± 11.7 U/l
- AST [7, 14]: 105.2 ± 19.2 U/l
- Hb [7, 14]: 14.4 ± 0.1 g/dL
- LY [7, 14]: 1.8 ± 0.5 K/μl
- MO [7, 14]: 1.1 ± 0.2 K/μl
- Ne [7, 14]: 14.0 ± 2.7 K/μl
- Plt [7, 14]: 1390 ± 43 K/μl
- WBC [7, 14]: 14.6 ± 4.2 K/μl
- glucose [7, 14]: 76.2 ± 3.6 mg/dL
- gain in body weight as % of the control weight gain ([7]; PX-866 10 mg/kg iv): 83%
- time for changes in body weight, plasma glucose and blood cell counts to return to normal after treatment stopped ([7]; scid mice, long term PX-866): ≤ 9 days
- change in any other blood elements [8]: no significant change
- neutrophil counts ([8]; ±S.E., n=4): 3.7±1.8 K/:l
- erythroid lineage CFU-GEMM, BFU-E or CFU-E (mouse bone marrow): no significant change
- myeloid CFU-GM (mouse bone marrow; ±S.E., n=4): 168±59 colonies per 60,000 bone marrow cells plated
